Source: patent US9878994B2, “2-H-indazole derivatives as cyclin-dependent kinase (CDK) inhibitors and therapeutic uses thereof” (Beta Pharma, Inc., priority 2014, dated 2018)
Where two headings read alike, the source gives them in different places.

Legend:
CDK6 = CDK6 (Homo sapiens, UniProt Q00534); test: CDK6 biochemical assay (33P-ATP filter-binding kinase assay)
Protocol: (§1) Cyclin Dl was added to freshly prepared reaction buffer [20 mM Hepes (pH 7.5), 10 mM MgCl2, 1 mM EGTA, 0.02% Brij 35, 0.02 mg/mL BSA, 0.1 mM Na3VO4, 2 mM DTT, 1% DMSO]. CDK4 or CDK6 was delivered to the substrate solution and gently mixed. […] The compounds, diluted in DMSO, were added into the kinase reaction mixture by Acoustic technology (Echo550; nanoliter range) and incubated for 20 minutes at room temperature. 33P-ATP (1 μM) was added to the reaction mixture to initiate the reaction. The kinase reaction was incubated for 2 hours at room temperature. The reactions were spotted onto P81 ion exchange paper and the kinase activity detected by filter-binding method. Curves were fitted to a nonlinear regression curve using a four parameter logistic equation (GraphPad Prism).

MCF7 human tumor cells = test: MCF7 cell assay (Cell Titer-Glo, inhibition of cell growth); assay type: cell-based; details: 72 hours of culture
Protocol: The MCF7 human tumor cells were seeded in a clear polystyrene 96-well microculture plate (Corning® Costar® 96-well flat bottom plate, Cat. #3997) in a total volume of 90 μL/well. After 24 hours of incubation in a humidified incubator at 37° C. with 5% CO2 and 95% air, 10 μL of 10×, serially diluted 1 in growth medium was added to each well in duplicate (10 point dose response). After 72 hours of culture in a humidified incubator at 37° C., in an atmosphere of 5% CO2 and 95% air, the plated cells and Cell Titer-Glo® (Promega G7571) reagents were brought to room temperature to equilibrate for 30 minutes. 100 μL of Cell Titer-Glo® reagent was added to each well. The plate was shaken for two minutes and then left to equilibrate for ten minutes. The medium/Cell Titer Glo® reagent was transferred to a white polystyrene 96-well microculture plate (Corning® Costar® 96-well flat bottom plate, Cat. #3917) before reading luminescence on the Tecan GENios microplate reader. Percent inhibition of cell growth was calculated relative to untreated control wells. All tests were performed in duplicate at each concentration level. The IC50 value for the test agents was estimated using Prism 6.05 by curve-fitting the data using the following four parameter-logistic equation: […]

CDK4 = CDK4 (Homo sapiens, UniProt P11802); test: CDK4 biochemical assay (33P-ATP filter-binding kinase assay)
Protocol: as §1

CDK6, sequence (Q00534 whole entry): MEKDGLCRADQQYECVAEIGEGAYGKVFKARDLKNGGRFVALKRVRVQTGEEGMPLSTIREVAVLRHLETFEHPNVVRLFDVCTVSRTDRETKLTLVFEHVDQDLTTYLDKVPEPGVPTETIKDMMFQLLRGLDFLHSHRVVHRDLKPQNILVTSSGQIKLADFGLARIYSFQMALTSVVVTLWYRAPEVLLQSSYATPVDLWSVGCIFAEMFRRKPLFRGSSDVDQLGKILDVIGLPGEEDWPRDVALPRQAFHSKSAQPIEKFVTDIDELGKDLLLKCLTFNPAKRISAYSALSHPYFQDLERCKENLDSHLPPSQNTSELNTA
CDK6, sequence (P24385 whole entry partner): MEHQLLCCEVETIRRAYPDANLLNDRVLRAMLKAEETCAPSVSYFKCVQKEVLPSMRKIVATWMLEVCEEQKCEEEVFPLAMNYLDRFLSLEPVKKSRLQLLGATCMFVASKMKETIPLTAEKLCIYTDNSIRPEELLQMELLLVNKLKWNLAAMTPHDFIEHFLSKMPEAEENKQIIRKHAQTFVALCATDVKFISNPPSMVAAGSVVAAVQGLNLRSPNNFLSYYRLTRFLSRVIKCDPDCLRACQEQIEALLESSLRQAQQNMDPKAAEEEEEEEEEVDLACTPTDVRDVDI
CDK4, sequence (P11802 whole entry): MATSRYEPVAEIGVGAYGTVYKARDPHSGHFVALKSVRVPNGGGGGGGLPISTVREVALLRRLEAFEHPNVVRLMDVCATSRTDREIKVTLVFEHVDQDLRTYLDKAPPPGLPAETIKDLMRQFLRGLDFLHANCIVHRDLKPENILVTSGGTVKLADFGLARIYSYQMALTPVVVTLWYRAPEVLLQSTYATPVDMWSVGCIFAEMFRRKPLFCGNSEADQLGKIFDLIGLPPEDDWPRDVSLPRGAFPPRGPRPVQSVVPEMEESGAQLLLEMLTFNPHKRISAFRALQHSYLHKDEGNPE
CDK4, sequence (P24385 whole entry partner): as the sequence (P24385 whole entry partner) above

IC50 (CDK6; Cyclin D1, 1 μM 33P-ATP, 2 hours at room temperature, read-out: IC50 in CDK6 assay)	IC50 (MCF7 human tumor cells)	IC50 (CDK4; Cyclin D1, 1 μM 33P-ATP, 2 hours at room temperature, read-out: IC50 in CDK4 assay)	IC50 (CDK6; assay conditions described herein, read-out: IC50 CDK6 biochemical assay)	IC50 (CDK4; assay conditions described herein, read-out: IC50 CDK4 biochemical assay)	SMILES
< 1 nM	< 2000 nM	< 1 nM			CCN1CCN(Cc2ccc(Nc3ncc(F)c(-c4ccc5nn(C)c(C(C)C)c5c4)n3)nc2)CC1 [Compound 1, N-(5-((4-ethylpiperazin-1-yl)methyl)pyridin-2-yl)-5-fluoro-4-(3-isopropyl-2-methyl-2H-indazol-5-yl)pyrimidin-2-amine]
	10000 nM				CN(C)C(=O)c1cc2cnc(Nc3ccc(N4CCNCC4)cn3)nc2n1C1CCCC1 [Compound 32]
	< 2000 nM				CCN1CCN(Cc2ccc(Nc3ncc(F)c(-c4cc(F)c5nc(C)n(C(C)C)c5c4)n3)nc2)CC1 [Compound 33]
	10000 nM		< 2 nM	< 1 nM	CC(=O)c1c(C)c2nc(Nc3ccc(N4CCNCC4)cn3)ncc2n(C2CCCC2)c1=O [Compound 34]
